Key:
[1] = biological target: Human immunodeficiency virus type 1 reverse transcriptase (Human immunodeficiency virus 1, UniProt Q72547, M184I); test: Inhibition of HIV reverse transcriptase M184I mutant in cell free assay
[2] = Inhibition of wild type HIV reverse transcriptase in cell free assay; settings: Human immunodeficiency virus
[3] = Inhibition of recombinant wild type HIV reverse transcriptase; parameters: species or system Human immunodeficiency virus
[4] = Inhibition of HIV reverse transcriptase M184V mutant in cell free assay; settings: Human immunodeficiency virus

SMILES | IC50 [1] [µM] | IC50 [2] [µM] | IC50 [3] [µM] | IC50 [4] [µM]
Nc1nc(=O)n([C@H]2C[C@@H](COP(=O)(O)OP(=O)(O)OP(=O)(O)O)C2)cc1F | 6.1 | 6.9 | 4.7 | 
Nc1ccn([C@@H]2CS[C@H](COP(=O)(O)OP(=O)(O)OP(=O)(O)O)O2)c(=O)n1 [LAMIVUDINE TRIPHOSPHATE] | > 10 | 6.5 | 3 | > 10
